# In PMC7190078 (Journal of medicinal chemistry, 2019):
# What was measured:
# [1] = Single-dose pharmacokinetics in NSG mice; assay type: in vivo, mouse
# STAT3 (total and pY705) = assay: Western blot, STAT3 signaling in MDA-MB-231 cells; assay type: cell-based, human; details: at 10-fold of the IC50
# HDAC11 = molecular target: T1, HDAC11 (Homo sapiens, UniProt Q96DB2); assay: HDAC inhibition, electrophoretic mobility shift assay; assay type: biochemical; details: EMSA, n = 2
# T1 sequence (Q96DB2 1-347): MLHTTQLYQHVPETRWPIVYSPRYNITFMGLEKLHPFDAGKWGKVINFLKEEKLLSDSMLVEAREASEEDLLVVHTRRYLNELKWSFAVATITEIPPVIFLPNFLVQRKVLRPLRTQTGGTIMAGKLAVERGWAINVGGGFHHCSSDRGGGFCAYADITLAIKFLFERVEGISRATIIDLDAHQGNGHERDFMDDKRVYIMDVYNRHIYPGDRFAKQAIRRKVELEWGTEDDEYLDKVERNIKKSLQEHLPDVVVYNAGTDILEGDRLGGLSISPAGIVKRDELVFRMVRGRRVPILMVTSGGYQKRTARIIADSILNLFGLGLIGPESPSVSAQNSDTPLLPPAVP
# [2] = Glutathione stability assay using HPLC; assay type: physicochemical; details: 100-fold excess reduced L-glutathione, HEPES buffer pH 7.4, after 25 h
# [3] = Serum concentration after 5 days daily dosing in NSG mice; assay type: in vivo, mouse; details: for concentration at 5 h: NSG, mouse, serum, intraperitoneal
# [4] = test system: brain tumor stem cell (BTSC) glioblastoma lines; assay: Cytotoxicity assay in GBM BTSCs; assay type: cell-based, human; details: multiple BTSC glioblastoma lines
# [5] = Glutathione stability assay using 19F NMR; assay type: physicochemical; details: 100-fold excess glutathione, after 16 h
# HDAC10 = molecular target: T2, HDAC10 (Homo sapiens, UniProt Q969S8); assay: HDAC inhibition, EMSA at fixed concentration; assay type: biochemical
# T2 sequence (Q969S8 1-669): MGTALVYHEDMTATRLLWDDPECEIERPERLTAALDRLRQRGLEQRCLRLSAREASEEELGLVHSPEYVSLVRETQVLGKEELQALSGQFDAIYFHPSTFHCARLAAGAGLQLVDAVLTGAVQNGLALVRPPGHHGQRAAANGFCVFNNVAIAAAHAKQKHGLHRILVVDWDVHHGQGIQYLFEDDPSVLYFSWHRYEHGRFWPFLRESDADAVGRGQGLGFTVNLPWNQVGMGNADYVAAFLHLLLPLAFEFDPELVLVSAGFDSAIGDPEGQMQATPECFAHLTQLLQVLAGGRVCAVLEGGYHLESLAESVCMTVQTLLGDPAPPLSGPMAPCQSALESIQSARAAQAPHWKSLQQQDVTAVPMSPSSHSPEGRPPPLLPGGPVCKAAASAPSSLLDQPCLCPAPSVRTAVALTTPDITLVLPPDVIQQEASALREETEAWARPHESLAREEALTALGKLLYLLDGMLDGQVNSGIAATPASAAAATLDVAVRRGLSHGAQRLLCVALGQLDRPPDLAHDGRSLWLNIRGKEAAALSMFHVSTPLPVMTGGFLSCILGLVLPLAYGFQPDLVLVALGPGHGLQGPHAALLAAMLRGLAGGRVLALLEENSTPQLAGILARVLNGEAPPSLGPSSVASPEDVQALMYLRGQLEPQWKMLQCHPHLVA
# [6] = test system: MRC-9 lung cells (noncancerous); assay: Cytotoxicity assay; assay type: cell-based, human
# [7] = Mouse plasma protein binding assay; assay type: in vitro ADME; details: both, CD-1, mouse
# D458 recurrent MDB cells = assay: Cytotoxicity assay in medulloblastoma cells; assay type: cell-based, human
# [8] = Caco-2 permeability assay; assay type: in vitro ADME; details: human
# [9] = test system: D425 primary medulloblastoma (MDB) cells; assay: Cytotoxicity assay in medulloblastoma cells; assay type: cell-based, human
# [10] = test system: equivalent immunodeficient mice; assay: Orthotopic tumor model in immunodeficient mice, survival
# STAT5b (total and pY694) = assay: Western blot, STAT5 signaling in MV4–11 cells; assay type: cell-based, human; details: at 10 μM
# MV4–11 AML cells = assay: Cytotoxicity assay; assay type: cell-based; details: Homo sapiens, MV4-11, read-out: IC50 (cytotoxicity)
# [11] = test system: MOLM-13 acute myeloid leukemia (AML) cells; assay: Cytotoxicity assay; assay type: cell-based, human; details: MOLM-13 AML cells
# [12] = test system: chronic myelogenous leukemia K562 cells; assay: Cytotoxicity assay; assay type: cell-based, human
# HDAC6 = molecular target: T3, HDAC6 (Homo sapiens, UniProt Q9UBN7); assay: HDAC inhibition, electrophoretic mobility shift assay; assay type: biochemical; details: EMSA, n = 2
# T3 sequence (Q9UBN7 1-1215): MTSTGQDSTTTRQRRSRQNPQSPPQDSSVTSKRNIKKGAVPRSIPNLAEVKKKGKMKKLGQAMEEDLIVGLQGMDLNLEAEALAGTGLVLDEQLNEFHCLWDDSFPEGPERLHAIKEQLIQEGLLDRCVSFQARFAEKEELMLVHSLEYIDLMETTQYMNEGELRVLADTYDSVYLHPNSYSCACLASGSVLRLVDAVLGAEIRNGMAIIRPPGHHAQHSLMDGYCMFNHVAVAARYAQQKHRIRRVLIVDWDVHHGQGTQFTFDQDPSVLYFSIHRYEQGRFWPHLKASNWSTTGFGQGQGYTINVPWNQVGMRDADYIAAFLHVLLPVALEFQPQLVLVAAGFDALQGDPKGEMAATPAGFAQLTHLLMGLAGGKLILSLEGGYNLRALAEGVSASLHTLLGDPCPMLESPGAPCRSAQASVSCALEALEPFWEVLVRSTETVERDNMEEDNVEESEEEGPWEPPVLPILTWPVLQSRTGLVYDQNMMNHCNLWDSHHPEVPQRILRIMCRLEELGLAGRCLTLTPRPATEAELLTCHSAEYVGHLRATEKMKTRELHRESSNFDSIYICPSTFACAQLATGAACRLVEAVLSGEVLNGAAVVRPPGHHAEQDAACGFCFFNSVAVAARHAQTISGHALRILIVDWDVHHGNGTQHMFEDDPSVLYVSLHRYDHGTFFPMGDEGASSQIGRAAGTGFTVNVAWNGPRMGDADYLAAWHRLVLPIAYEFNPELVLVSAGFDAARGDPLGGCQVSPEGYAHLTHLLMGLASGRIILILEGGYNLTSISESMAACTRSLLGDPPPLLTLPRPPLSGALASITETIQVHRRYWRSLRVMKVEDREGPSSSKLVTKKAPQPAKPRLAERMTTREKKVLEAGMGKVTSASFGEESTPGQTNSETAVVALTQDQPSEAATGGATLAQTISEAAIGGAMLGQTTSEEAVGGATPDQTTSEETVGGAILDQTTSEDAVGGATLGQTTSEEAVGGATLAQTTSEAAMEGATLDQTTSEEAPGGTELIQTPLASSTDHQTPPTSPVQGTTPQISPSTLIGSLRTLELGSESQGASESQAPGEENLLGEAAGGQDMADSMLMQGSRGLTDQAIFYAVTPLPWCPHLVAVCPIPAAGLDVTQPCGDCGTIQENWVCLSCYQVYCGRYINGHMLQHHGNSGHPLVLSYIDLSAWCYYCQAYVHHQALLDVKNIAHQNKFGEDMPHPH
# HDAC8 = molecular target: T4, HDAC8 (Homo sapiens, UniProt Q9BY41); assay: as above; assay type: biochemical
# T4 sequence (Q9BY41 1-377): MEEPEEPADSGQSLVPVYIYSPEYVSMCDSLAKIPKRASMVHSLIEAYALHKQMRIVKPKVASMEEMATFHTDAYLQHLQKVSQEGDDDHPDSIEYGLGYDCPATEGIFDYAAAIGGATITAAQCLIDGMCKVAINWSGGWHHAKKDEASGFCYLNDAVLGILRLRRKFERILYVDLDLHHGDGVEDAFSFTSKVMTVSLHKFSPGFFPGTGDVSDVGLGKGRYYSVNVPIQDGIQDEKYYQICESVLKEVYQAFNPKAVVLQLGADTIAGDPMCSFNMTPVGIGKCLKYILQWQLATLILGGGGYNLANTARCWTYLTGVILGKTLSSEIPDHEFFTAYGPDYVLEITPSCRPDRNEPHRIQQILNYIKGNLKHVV
# [13] = test system: PC-3 prostate cancer cells; assay: Cytotoxicity in prostate cancer cells; assay type: cell-based, human
# HDAC3 = HDAC3 (Homo sapiens, UniProt O15379); assay: HDAC inhibition, electrophoretic mobility shift assay; assay type: biochemical; details: EMSA, n = 2
# HDAC3, sequence (O15379 whole entry): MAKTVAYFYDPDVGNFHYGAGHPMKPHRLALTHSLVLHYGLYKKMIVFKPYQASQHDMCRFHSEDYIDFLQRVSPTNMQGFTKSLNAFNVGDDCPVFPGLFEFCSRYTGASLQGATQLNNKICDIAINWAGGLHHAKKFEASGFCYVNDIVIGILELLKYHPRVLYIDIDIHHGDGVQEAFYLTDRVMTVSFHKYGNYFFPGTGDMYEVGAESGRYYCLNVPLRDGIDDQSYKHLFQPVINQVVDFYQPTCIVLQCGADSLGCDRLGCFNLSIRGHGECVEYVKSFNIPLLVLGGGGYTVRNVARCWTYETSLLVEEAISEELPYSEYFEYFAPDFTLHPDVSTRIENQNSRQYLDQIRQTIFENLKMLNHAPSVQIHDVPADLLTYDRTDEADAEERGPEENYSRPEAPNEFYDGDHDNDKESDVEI
# HDAC3, sequence (Q9Y618 395-489 partner limits assumed): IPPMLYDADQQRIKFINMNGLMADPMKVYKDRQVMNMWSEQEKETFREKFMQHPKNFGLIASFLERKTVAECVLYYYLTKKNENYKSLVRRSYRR
# NSG mice = assay: Toxicity study; assay type: in vivo
# HDAC1 = HDAC1 (Homo sapiens, UniProt Q13547); assay: HDAC inhibition, EMSA at fixed concentration; assay type: biochemical
# HDAC1, sequence (Q13547 whole entry): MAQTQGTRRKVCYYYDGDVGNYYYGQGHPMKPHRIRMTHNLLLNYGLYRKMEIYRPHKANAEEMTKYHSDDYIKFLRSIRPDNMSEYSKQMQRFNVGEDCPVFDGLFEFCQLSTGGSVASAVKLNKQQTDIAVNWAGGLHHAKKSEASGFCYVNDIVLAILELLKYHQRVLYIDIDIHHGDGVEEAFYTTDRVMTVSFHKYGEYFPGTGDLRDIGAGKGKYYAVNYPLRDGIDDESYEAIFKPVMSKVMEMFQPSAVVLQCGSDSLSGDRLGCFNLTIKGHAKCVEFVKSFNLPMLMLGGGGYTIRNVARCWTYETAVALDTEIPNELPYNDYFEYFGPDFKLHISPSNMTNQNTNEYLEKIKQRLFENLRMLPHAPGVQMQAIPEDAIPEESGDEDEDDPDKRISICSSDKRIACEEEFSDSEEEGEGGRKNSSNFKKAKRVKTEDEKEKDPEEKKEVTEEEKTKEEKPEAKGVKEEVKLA
# HDAC4 = HDAC4 (Homo sapiens, UniProt P56524); assay: HDAC inhibition, EMSA at fixed concentration; assay type: biochemical
# HDAC4, sequence (P56524 whole entry): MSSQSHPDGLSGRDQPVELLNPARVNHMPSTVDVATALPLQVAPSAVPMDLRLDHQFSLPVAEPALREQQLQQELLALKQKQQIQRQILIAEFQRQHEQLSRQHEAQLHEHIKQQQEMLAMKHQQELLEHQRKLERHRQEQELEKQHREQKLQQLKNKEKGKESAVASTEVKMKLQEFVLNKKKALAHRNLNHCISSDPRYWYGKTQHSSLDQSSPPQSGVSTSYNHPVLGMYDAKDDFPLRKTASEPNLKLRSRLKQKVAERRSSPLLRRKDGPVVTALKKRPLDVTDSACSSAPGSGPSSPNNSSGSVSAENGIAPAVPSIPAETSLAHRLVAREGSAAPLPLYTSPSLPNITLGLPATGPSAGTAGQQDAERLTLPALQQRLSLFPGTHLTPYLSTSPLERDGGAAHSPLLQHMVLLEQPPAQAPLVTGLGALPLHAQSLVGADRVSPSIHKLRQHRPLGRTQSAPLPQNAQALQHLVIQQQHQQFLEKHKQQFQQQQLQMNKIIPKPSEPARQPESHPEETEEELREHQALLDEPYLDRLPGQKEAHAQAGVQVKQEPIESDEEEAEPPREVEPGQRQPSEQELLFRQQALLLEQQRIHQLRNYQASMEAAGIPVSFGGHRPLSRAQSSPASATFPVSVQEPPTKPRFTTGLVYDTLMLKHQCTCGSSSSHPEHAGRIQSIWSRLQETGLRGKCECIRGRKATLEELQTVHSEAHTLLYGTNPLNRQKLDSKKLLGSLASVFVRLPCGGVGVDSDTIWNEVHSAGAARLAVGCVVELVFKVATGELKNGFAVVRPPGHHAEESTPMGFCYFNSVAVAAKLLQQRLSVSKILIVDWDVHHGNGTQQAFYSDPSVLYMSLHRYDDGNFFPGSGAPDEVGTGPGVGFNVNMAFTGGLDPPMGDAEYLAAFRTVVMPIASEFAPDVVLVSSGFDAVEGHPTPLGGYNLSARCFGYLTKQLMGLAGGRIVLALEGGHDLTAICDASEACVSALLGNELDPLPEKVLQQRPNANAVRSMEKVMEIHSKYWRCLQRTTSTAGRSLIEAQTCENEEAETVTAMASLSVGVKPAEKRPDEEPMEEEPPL
compound,measurement,setting,value
"CC(C)(C)c1ccc(CN(C(=O)CN(Cc2c(F)c(F)c(F)c(F)c2F)S(=O)(=O)c2ccc(F)cc2)c2ccc(C(=O)NO)cc2)cc1 [AES-135, 4-(N-(4-(tert-Butyl)benzyl)-2-((4-fluoro-N-((perfluorophenyl)-methyl)phenyl)sulfonamido)acetamido)-N-hydroxybenzamide]",duration of micromolar (μM) concentrations,[1]; IP injection,> 10 h
same,clearance rate,"[1]; single 20 mg/kg IP, assuming bioavailability to be 100%",0.004 L/h
same,effect on total STAT3 and pY705 STAT3 (Western blot),STAT3 (total and pY705),neither total STAT3 nor pY705 STAT3 was significantly reduced
same,inhibition at 10 µM,"HDAC11; read-out: % inhibition HDAC11, at 10 μM",> 90%
same,stability to glutathione (HPLC),[2],No discernible reaction was observed
same,increase in blood concentration from quadrupling the dose,[3]; 40 vs 10 mg/kg,~5.7 fold
same,concentration at 5 h,[3]; 10 mg/kg,323 ng/mL
same,concentration at 5 h,[3]; 40 mg/kg,1830 ng/mL
same,cytotoxic potency,[4],low μM potency
same,stability to glutathione (19F NMR),[5],no displacement of fluoride was observed
same,inhibition at 10 µM,"HDAC10; read-out: % inhibition HDAC10, at 10 μM, n = 2",≥ 70%
same,toxicity in noncancerous cells,[6],minimal toxicity
same,recovery at 6 h,[7]; mouse plasma,16 to 20%
same,fraction unbound at 6 h,[7]; plasma,0.004
same,cytotoxic potency,D458 recurrent MDB cells,nM activity
same,Papp A→B at 5 µM,[8],0.27 ×10⁻⁶ cm/s
same,efflux ratio at 5 µM,[8],3.83
same,cytotoxic potency,[9],nM activity
same,survival advantage,[10],no obvious survival advantage
same,effect on total STAT5b and pY694 STAT5b (Western blot),STAT5b (total and pY694),failed to suppress total STAT5b or pY694 STAT5b
same,IC50,MV4–11 AML cells,1880 ± 890 nM
same,cytotoxic potency,[11],low μM potency
same,sensitivity to cytotoxicity,[12],resistant
same,inhibition at 10 µM,"HDAC6; read-out: % inhibition HDAC6, at 10 μM",> 90%
same,IC50,HDAC8,1100 nM
same,inhibition at 10 µM,"HDAC8; read-out: % inhibition HDAC8, at 10 μM, EMSA, n = 2",> 90%
same,cytotoxic potency,[13],low μM potency
same,inhibition at 10 µM,"HDAC3; read-out: % inhibition HDAC3, at 10 μM",> 90%
same,toxicity assessed via weight loss,"NSG mice; 60 mg/kg IP daily for 4–5 days, n = 6",no significant weight loss
same,toxicity based on percentage weight loss compared to vehicle control,NSG mice; 10 and 40 mg/kg IP once a day for 5 days,No visible toxicity
same,inhibition at 10 µM,"HDAC1; read-out: % inhibition HDAC1, at 10 μM, n = 2",≥ 70%
same,inhibition at 10 µM,"HDAC4; read-out: % inhibition HDAC4, at 10 μM, n = 2",< 20%
"CN(O)C(=O)c1ccc(N(Cc2ccc(C(C)(C)C)cc2)C(=O)CN(Cc2c(F)c(F)c(F)c(F)c2F)S(=O)(=O)c2ccc(F)cc2)cc1 [compound 60, 4-(N-(4-(tert-Butyl)benzyl)-2-((4-fluoro-N-((perfluorophenyl)-methyl)phenyl)sulfonamido)acetamido)-N-hydroxy-N-methylbenzamide]",% inhibition HDAC11,HDAC11; at 10 μM,64%
same,% inhibition HDAC10,"HDAC10; at 10 μM, n = 2",0%
same,% inhibition HDAC6,HDAC6; at 10 μM,12%
same,% inhibition HDAC8,"HDAC8; at 10 μM, EMSA, n = 2",0%
same,% inhibition HDAC3,HDAC3; at 10 μM,0%
same,% inhibition HDAC1,"HDAC1; at 10 μM, n = 2",0%
same,% inhibition HDAC4,"HDAC4; at 10 μM, n = 2",0%
